Data: US10201564B2, “Methods of using inhaled nitric oxide gas for treatment of acute respiratory distress syndrome in children” (Mallinckrodt Hospital Products IP Limited, priority 2014, dated 2019)

Tested on: patients with moderately severe Acute Lung Injury (ALI)
Experiment: Adult ALI/ARDS study: safety results (adverse events)
Assay type: in vivo, human
Conditions: initial 28-day study period
Method: A large-scale, randomized, blinded, placebo-controlled study was carried out in the Intensive Care Units (ICUs) of 46 US hospitals to evaluate the efficacy of low-dose (5 ppm) iNO in 385 patients with moderately severe Acute Lung Injury (ALI). The primary endpoint of this study was number of days alive and off assisted breathing.
Safety results for the initial 28-day study period have been reported and are summarized briefly here. A total of 630 adverse events (AEs) were reported for patients treated with iNO versus 666 events for those who received placebo. Respiratory system AEs occurred in 51% versus 61% of patients receiving iNO and placebo, respectively, primarily due to higher frequencies of pneumonia, pneumothorax, and apnea in the placebo group. Frequency of other AEs was similar in both groups.
Patients were randomly assigned to receive either inhaled placebo gas (nitrogen) or 5 ppm of iNO (INO Therapeutics Inc., Port Allen, La.). All patients, healthcare professionals, and investigators were blinded to the assigned treatment. Inhaled NO was administered via INOvent® delivery system (Datex-Ohmeda, Madison, Wis.) that blended treatment gas (nitrogen or NO at 100-ppm balance nitrogen) 1:20 with ventilator gases to achieve a target ppm value in the inspiratory limb of the ventilator.

[N]=O [Nitric Oxide, nitric oxide]
Frequency of other (non-respiratory) AEs versus placebo: similar
Respiratory system AEs, patients (placebo 61%): 51%
adverse events (AEs) reported, total (placebo 666): 630
